Laboratory results as given in ChEMBL document CHEMBL1955743, “Potent inhibitors of LpxC for the treatment of Gram-negative infections” (J Med Chem, 2012).
In brackets after ≈: the same amount, converted by molar mass.

How the values were obtained:
[1] = molecular target: T1, UDP-3-O-acyl-N-acetylglucosamine deacetylase (Pseudomonas aeruginosa (strain ATCC 15692 / PAO1 / 1C / PRS 101 / LMG12228), UniProt P47205); assay: Inhibition of Pseudomonas aeruginosa LpxC using UDP-3-O-(R-hydroxydecanoyl)-N-acetylglucosamine incubated for 30 mins prior to substrate addition measured after 60 mins by mass spectrophotometry
T1 sequence (P47205 whole entry): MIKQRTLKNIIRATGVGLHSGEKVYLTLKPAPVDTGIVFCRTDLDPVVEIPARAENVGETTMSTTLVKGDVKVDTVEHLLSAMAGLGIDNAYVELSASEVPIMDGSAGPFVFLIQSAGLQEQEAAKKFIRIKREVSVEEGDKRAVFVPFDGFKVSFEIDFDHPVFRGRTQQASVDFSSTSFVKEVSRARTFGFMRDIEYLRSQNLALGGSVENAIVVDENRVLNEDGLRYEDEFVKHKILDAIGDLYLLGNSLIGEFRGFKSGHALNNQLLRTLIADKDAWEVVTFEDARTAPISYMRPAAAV

Pseudomonas aeruginosa [2] = assay: Antibacterial activity against Pseudomonas aeruginosa PAO1 after 16 to 20 hrs by broth microdilution method; type: functional
Staphylococcus aureus = assay: Antibacterial activity against Staphylococcus aureus ATCC 29213 after 16 to 20 hrs by broth microdilution method; type: functional
Pseudomonas aeruginosa [3] = assay: Antibacterial activity against Pseudomonas aeruginosa after 16 to 20 hrs by broth microdilution method; type: functional
Klebsiella pneumoniae = assay: Antibacterial activity against Klebsiella pneumoniae after 16 to 20 hrs by broth microdilution method; type: functional
Escherichia coli = assay: Antibacterial activity against Escherichia coli after 16 to 20 hrs by broth microdilution method; type: functional
Klebsiella aerogenes = assay: Antibacterial activity against Enterobacter aerogenes after 16 to 20 hrs by broth microdilution method; type: functional
Acinetobacter baumannii = assay: Antibacterial activity against Acinetobacter baumannii after 16 to 20 hrs by broth microdilution method; type: functional
Pseudomonas aeruginosa [4] = assay: Antibacterial activity against Pseudomonas aeruginosa clinical isolates after 16 to 20 hrs by broth microdilution method; type: functional
Citrobacter freundii = assay: Antibacterial activity against Citrobacter freundii after 16 to 20 hrs by broth microdilution method; type: functional
[5] = Clearance in rat at 10 mg/kg, iv; type: ADME, organism-based; parameters: dose 10 mg/kg, route intravenous; settings: in vivo
[6] = Volume of distribution at steady state in rat at 10 mg/kg, iv; type: ADME, organism-based; parameters: dose 10 mg/kg, route intravenous; settings: in vivo, read-out: Vdss
[7] = AUC in rat at 10 mg/kg, iv; type: ADME, organism-based; parameters: dose 10 mg/kg, route intravenous; settings: plasma
[8] = Half life in rat at 10 mg/kg, iv; type: ADME, organism-based; parameters: dose 10 mg/kg, route intravenous; settings: in vivo

IC50 [1] [nM]	MIC (Pseudomonas aeruginosa [2]) [µg/mL]	MIC (Staphylococcus aureus) [µg/mL]	Molecule	other results
27.8	32 (≈ 82 µM)	> 64	C[C@@](CCc1ccc(-c2cccc(C(N)=O)c2)cc1)(C(=O)NO)S(C)(=O)=O	
73.6	64 (≈ 163 µM)	> 64	C[C@@](CCc1ccc(-c2ccc(C(=O)O)cc2)cc1)(C(=O)NO)S(C)(=O)=O	
	> 64	> 64	C[C@](CCc1ccc(-c2ccccc2)cc1)(C(=O)NO)S(C)(=O)=O	
			POLYMYXIN B	MIC50 (Pseudomonas aeruginosa [4]): 0.5 µg/mL; MIC90 (Pseudomonas aeruginosa [4]): 1 µg/mL
			C[C@H]1[C@H](NC(=O)/C(=N\OC(C)(C)C(=O)O)c2csc(N)n2)C(=O)N1S(=O)(=O)O [AZTREONAM]	MIC90 (Pseudomonas aeruginosa [3]): 64 µg/mL (≈ 147 µM); MIC90 (Klebsiella pneumoniae): > 64 µg/mL; MIC90 (Escherichia coli): > 64 µg/mL; MIC90 (Klebsiella aerogenes): 32 µg/mL (≈ 73.5 µM); MIC90 (Citrobacter freundii): > 64 µg/mL; MIC90 (Acinetobacter baumannii): 32 µg/mL (≈ 73.5 µM)
30.4	4 (≈ 10.5 µM)	64 (≈ 169 µM)	C[C@@](CCc1ccc(Sc2ccccc2)cc1)(C(=O)NO)S(C)(=O)=O	
1.85	0.5 (≈ 1.23 µM)	> 64	C[C@@](CCc1ccc(-c2ccc(C(=O)CO)cc2)cc1)(C(=O)NO)S(C)(=O)=O	MIC90 (Pseudomonas aeruginosa [3]): 1 µg/mL (≈ 2.47 µM); MIC90 (Klebsiella pneumoniae): 8 µg/mL (≈ 19.7 µM); MIC90 (Escherichia coli): 2 µg/mL (≈ 4.93 µM); MIC90 (Klebsiella aerogenes): 4 µg/mL (≈ 9.87 µM); MIC90 (Citrobacter freundii): 4 µg/mL (≈ 9.87 µM); MIC90 (Acinetobacter baumannii): > 64 µg/mL
3.68	0.5 (≈ 1.38 µM)	> 64	C[C@@](CCc1ccc(-c2ccc(O)cc2)cc1)(C(=O)NO)S(C)(=O)=O	MIC90 (Pseudomonas aeruginosa [3]): 2 µg/mL (≈ 5.5 µM); MIC90 (Klebsiella pneumoniae): 16 µg/mL (≈ 44 µM); MIC90 (Escherichia coli): 4 µg/mL (≈ 11 µM); MIC90 (Klebsiella aerogenes): 16 µg/mL (≈ 44 µM); MIC90 (Citrobacter freundii): 8 µg/mL (≈ 22 µM); MIC90 (Acinetobacter baumannii): > 64 µg/mL; clearance [5]: 65 mL/min/kg; Vd [6]: 2.6 L/kg; AUC [7]: 2500 ng·h/mL; half-life [8]: 1.4 h; MIC50 (Pseudomonas aeruginosa [4]): 1 µg/mL (≈ 2.75 µM); MIC90 (Pseudomonas aeruginosa [4]): 4 µg/mL (≈ 11 µM)
			NCC[C@H](O)C(=O)N[C@@H]1C[C@H](N)[C@@H](O[C@H]2O[C@H](CN)[C@@H](O)[C@H](O)[C@H]2O)[C@H](O)[C@H]1O[C@H]1O[C@H](CO)[C@@H](O)[C@H](N)[C@H]1O [AMIKACIN]	MIC50 (Pseudomonas aeruginosa [4]): 4 µg/mL (≈ 6.83 µM); MIC90 (Pseudomonas aeruginosa [4]): 32 µg/mL (≈ 54.6 µM)
21.2	8 (≈ 17.8 µM)	> 64	C[C@@](CCc1ccc(-c2ccc(OCCCC(=O)O)cc2)cc1)(C(=O)NO)S(C)(=O)=O	
11.9	4 (≈ 10.1 µM)	> 64	CC(CS(=O)(=O)c1ccc(-c2ccccc2)cc1)(C(=O)NO)S(C)(=O)=O (racemic)	
< 2.47	2 (≈ 5.12 µM)	> 64	C[C@@](CCc1ccc(-c2ccc(C(N)=O)cc2)cc1)(C(=O)NO)S(C)(=O)=O	
26.1	8 (≈ 21.3 µM)	32 (≈ 85.2 µM)	CCc1ccccc1-c1ccc(CC[C@](C)(C(=O)NO)S(C)(=O)=O)cc1	
0.64	0.125 (≈ 0.336 µM)	> 64	C[C@@](CCc1ccc(-c2ccc(C#N)cc2)cc1)(C(=O)NO)S(C)(=O)=O	MIC90 (Pseudomonas aeruginosa [3]): 1 µg/mL (≈ 2.68 µM); MIC90 (Klebsiella pneumoniae): 2 µg/mL (≈ 5.37 µM); MIC90 (Escherichia coli): 0.5 µg/mL (≈ 1.34 µM); MIC90 (Klebsiella aerogenes): 1 µg/mL (≈ 2.68 µM); MIC90 (Citrobacter freundii): 2 µg/mL (≈ 5.37 µM); MIC90 (Acinetobacter baumannii): 16 µg/mL (≈ 43 µM); clearance [5]: 53 mL/min/kg; Vd [6]: 1.4 L/kg; AUC [7]: 3100 ng·h/mL; half-life [8]: 0.6 h
< 1.05	0.5 (≈ 1.31 µM)	16 (≈ 41.9 µM)	C[C@@](CCc1ccc(-c2ccc(Cl)cc2)cc1)(C(=O)NO)S(C)(=O)=O	
9.04	2 (≈ 5.47 µM)	64 (≈ 175 µM)	CC(CSc1ccc(-c2ccccc2)cc1)(C(=O)NO)S(C)(=O)=O (racemic)	
21.6	4 (≈ 10.6 µM)	> 64	CC(CCc1ccc(OCc2ccncc2)cc1)(C(=O)NO)S(C)(=O)=O (racemic)	
> 100	16 (≈ 59 µM)	> 64	C[C@@](CCc1ccccc1)(C(=O)NO)S(C)(=O)=O	
1.2	0.125 (≈ 0.319 µM)	> 64	C[C@@](CCc1ccc(-c2ccc3c(c2)OCO3)cc1)(C(=O)NO)S(C)(=O)=O	MIC90 (Pseudomonas aeruginosa [3]): 1 µg/mL (≈ 2.55 µM); MIC90 (Klebsiella pneumoniae): 4 µg/mL (≈ 10.2 µM); MIC90 (Escherichia coli): 0.5 µg/mL (≈ 1.28 µM); MIC90 (Klebsiella aerogenes): 1 µg/mL (≈ 2.55 µM); MIC90 (Citrobacter freundii): 2 µg/mL (≈ 5.11 µM); MIC90 (Acinetobacter baumannii): > 64 µg/mL
22.1	32 (≈ 77.4 µM)	64 (≈ 155 µM)	C[C@@](CCc1ccc(-c2cccc(-n3cccn3)c2)cc1)(C(=O)NO)S(C)(=O)=O	
5.16	2 (≈ 5.3 µM)	> 64	CC(CCc1ccc(OCc2ccccc2)cc1)(C(=O)NO)S(C)(=O)=O (racemic)	

Molecule	IC50 [1] [nM]	MIC (Pseudomonas aeruginosa [2]) [µg/mL]	MIC (Staphylococcus aureus) [µg/mL]	other results
O=C(O)c1cn(C2CC2)c2cc(N3CCNCC3)c(F)cc2c1=O [CIPROFLOXACIN]			0.25 (≈ 0.754 µM)	MIC90 (Pseudomonas aeruginosa [3]): 64 µg/mL (≈ 193 µM); MIC90 (Klebsiella pneumoniae): 64 µg/mL (≈ 193 µM); MIC90 (Escherichia coli): > 64 µg/mL; MIC90 (Klebsiella aerogenes): 1 µg/mL (≈ 3.02 µM); MIC90 (Acinetobacter baumannii): 64 µg/mL (≈ 193 µM)
